{"source": "patent US20050261246A1", "about": "“Methods for treating inflammatory and autoimmune diseases” (priority 2004, published 2005)", "key": {"[1]": {"test_system": "CD11c+/CD40+/CD86+ spleen cells", "experiment": "Splenic dendritic, B and T cells in non-CAIA Balb/c mice treated with SNS (FACS)", "format": "in vivo, mouse", "settings": "5 mg/kg i.p. five consecutive days", "procedure": "(A) Reduction of CD11c+/CD40+/CD86+ cells isolated from spleens of non-CAIA Balb/c mice treated i.p. with SNS at 5 mg/kg or with PBS for 5 consecutive days. Spleens were isolated on the next day after the last SNS injection and splenocytes were analyzed using FACS. The percentage value represents CD11c+/CD40+/CD86+ cell percentage out of the entire splenocyte population. […] Values on X and Y axes represent fluorescence intensity for cell surface markers CD11c and CD40, B220, and CD90.2 (Thy-1), respectively.\nBalb/c mice were treated i.p. with SNS for five consecutive days at 5 mg/kg and their spleen were harvested the next day after the last injection. Control mice received same numbers of injection of PBS. Splenic cells were stained with fluorescence-labeled antibodies, and analyzed by flow cytometry."}, "[2]": {"test_system": "TNFα and MCP-1 production", "experiment": "In vivo air-pouch assay, LPS-stimulated cytokine production", "set-up": "species or system mouse", "settings": "SNS 5 mg/kg then LPS 1 μg/ml, vs LPS-stimulated controls", "procedure": "The reduction of TNF-alpha (P=0.04) and MCP-1 (P=0.03) in SNS-treated mice upon LPS stimulation. PBS_PBS: PBS followed by PBS; PBS_LPS: PBS followed by LPS (1 μg/ml); SNS_PBS: SNS followed by PBS; SNS_LPS: SNS (5 mg/kg) followed by LPS (1 μg/ml). Results are derived from three independent experiments. Statistical analysis was performed using one-way ANOVA.\nTo further test effects of SNS in whole animals, we established an air-pouch assay to evaluate the effect of the compound, SNS, on LPS-stimulated cytokine production, following a procedure described previously (9). (See FIG. 14) Mice were pre-treated with PBS or SNS then challenged with LPS. The pouch wash-out was then analyzed for cytokine production using BD™ CBA Mouse Inflammatory Kit (BD Biosciences)."}}, "data": [{"smiles": "O=C1N[C@@H]2C(=C[C@H](O)[C@H]3OP(=O)(O)O[C@H]32)c2cc3c(c(O)c21)OCO3", "note": "[SNS, sodium narcistatin]", "values": [{"measurement": "CD11c+/CD86+/CD40+ spleen cells (mature dendritic cells)", "setting": "[1]", "value": "reduction of CD11c+/CD86+/CD40+ spleen cells"}, {"measurement": "T- and B-cell profile (B220, CD90.2)", "setting": "[1]", "value": "not affected"}, {"measurement": "MCP-1 in air-pouch wash-out", "setting": "[2]; P=0.03", "value": "significantly reduced"}, {"measurement": "TNFα in air-pouch wash-out", "setting": "[2]; P=0.04", "value": "significantly reduced"}]}]}
